Measured values from US10774051B2, “6-membered heterocyclic derivatives and pharmaceutical composition comprising the same” (Shionogi & Co., Ltd., priority 2015, dated 2020).
Like-named read-outs stand apart in the source and are kept apart here.

Tests used:
[1] = tested on: partial sciatic nerve ligation model in rats; assay: Analgesic effect in a Seltzer model, evaluation (1): mechanical allodynia, von Frey filaments; assay type: in vivo; conditions: rat, read-out: analgesic effect, % reversal of mechanical allodynia
Excerpt: Preparation of Partial Sciatic Nerve Ligation Model in Rats
Rats are anaesthetized using isoflurane/O2 inhalation anaesthesia. After induction of anesthesia, the left thigh is shaved. An incision was made in the skin just below the hip bone. The muscle was bluntly dissected to expose the sciatic nerve. About one half (½) of the sciatic nerve thickness is tightly ligated with a nylon thread and the wound is closed. The right thigh was used as a sham-operated control. The right thigh underwent an identical procedure with the left hind limb, however, the sciatic nerve was not manipulated or ligated.
Two weeks after nerve ligation, the effect on mechanical allodynia was assessed using a series of von Frey filaments. For habituation, the rats were placed into a plastic cage on a wire mesh bottom. Von Frey filaments (0.4 to 26 g) were applied to the plantar surface of the rat hind paws from the wire mesh side, and the value of the filament pressure at which the paw was withdrawn was used as a pain threshold. The measurement of mechanical sensitivity of the right and left hind paws was performed to obtain predose mechanical sensitivity. The rats showing the threshold change from 0.6 to 2 g (in nerve ligated side) and 8 to 15 g (in sham operated side) were used in the experiments. On the day before the experiment, the rats were evaluated with a series of von Frey filaments to familiarize them with the test procedure. The adopted animal was administrated with the compounds of the present invention. The compounds of the present invention were homogenized with mortar and pestle and suspended or diluted in 0.5% Methyl Cellulose to prepare 0.03-100 mg/2 mL/kg suspension and orally administered to rat using a syringe attached with a sonde. Post-dose mechanical sensitivities of the right and left hind paws were measured at approximately 1 to 7 hours after drug administration. Percent reversal of mechanical allodynia for each rat was calculated using the following formula. The analgesic effects of the compounds were compared.

[2] = biological target: human P2X7 receptor (Homo sapiens, UniProt Q99572, R270H/Y155H); assay: Evaluation of human P2X7 receptor inhibitory activity (Yo-Pro uptake, BzATP stimulation, FLIPR TETRA); assay type: cell-based
Outline: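 Yo-Pro dye uptake triggered by BzATP was monitored by FLIPR in human P2X7-transfected 1321N1 cells (SNP variant) in HEPES-buffered HBSS, pH 7.4-7.5. Compound was dispensed 8 min post-stimulation, then signal read for 20 min; IC50 derived logistically from inhibition of the fluorescence range.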

[3] = 5 hours after oral administration of 3 mg/kg
[4] = 1321N1 cells stably expressing human P2X7 receptor, BzATP stimulation, Yo-Pro uptake, read-out: IC50 (antagonistic activity for the human P2X7 receptor)
[5] = 3 hours after oral administration of 3 mg/kg
[6] = 1321N1 cells stably expressing human P2X7 receptor, BzATP stimulation, Yo-Pro uptake, read-out: IC50 (antagonistic activity for the human P2X7 receptor), class symbol
[7] = antagonistic activity for the human P2X7 receptor, read-out: IC50

SMILES | IC50 [2, 4] [nM] | IC50 [2, 7] [nM] | other results
Cc1cc(Nc2nc(=O)c(F)cn2Cc2cc(F)c(F)c(F)c2)c(C)nc1OC(F)F [Compound I-1232] | 6 | – | inhibition in vivo at 3 mg/kg [1, 3]: 55%
COc1cn(Cc2cc(F)c(F)c(F)c2)c(Nc2ccc(OC(F)F)cc2C)nc1=O [Compound I-0707] | 14 | – | inhibition in vivo at 3 mg/kg ([1]; 7 hours after oral administration of 3 mg/kg): 53%
COc1ccc(F)c(Nc2nc(=O)c(F)cn2Cc2cc(F)c(F)c(F)c2)c1 [Compound I-1296] | 11 | – | inhibition in vivo at 3 mg/kg [1, 5]: 59%
Cc1cc2c(cc1Nc1nc(=O)c(F)cn1Cc1cc(F)c(F)c(F)c1)COC2 [Compound I-1041] | 9 | – | inhibition in vivo at 3 mg/kg [1, 3]: 48%
COc1cn(Cc2ccc(F)c(Cl)c2)c(Nc2ccc(OC(F)F)cc2C)nc1=O [Compound I-0365] | 18 | – | inhibition in vivo at 3 mg/kg [1, 3]: 55%
COc1ccc(Nc2nc(=O)c(F)cn2Cc2cc(F)cc(F)c2)c(C)c1F [Compound I-1297] | 16 | – | inhibition in vivo at 3 mg/kg [1, 3]: 49%
COc1cc(C)c(Nc2nc(=O)c(OC)cn2Cc2cc(F)cc(F)c2)cc1C [Compound I-0372] | 5 | – | inhibition in vivo at 3 mg/kg [1, 5]: 64%
COc1cc(Nc2nc(=O)c(F)cn2Cc2cc(F)cc(F)c2)c(C)cc1F [Compound I-1050] | 10 | – | inhibition in vivo at 3 mg/kg [1, 3]: 46%
CCOc1ccc(Nc2nc(=O)c(OC)cn2Cc2cc(F)c(F)c(F)c2)c(C)c1 [Compound I-0702] | 11 | – | inhibition in vivo at 3 mg/kg [1, 3]: 58%
COc1ccc(Nc2nc(=O)c(F)cn2Cc2cc(F)cc(F)c2)c(C)c1 [Compound I-0842] | 5 | – | inhibition in vivo at 3 mg/kg [1, 3]: 69%
COc1cc(C)c(Nc2nc(=O)cnn2Cc2cc(F)c(F)c(F)c2)cc1OC [Compound I-1281] | 4 | – | inhibition in vivo at 3 mg/kg [1, 3]: 48%
COc1ccc(Nc2nc(=O)c(F)cn2Cc2cc(F)c(F)c(F)c2)c(C)c1 [Compound I-1040] | 6 | – | inhibition in vivo at 3 mg/kg [1, 5]: 49%
COc1ccc(C)c(Nc2nc(=O)c(OC)cn2Cc2ccc(F)c(Cl)c2)c1 [Compound I-0354] | 3 | – | inhibition in vivo at 3 mg/kg [1, 5]: 51%
O=C1CCCc2c(Nc3nc(=O)c(F)cn3Cc3cc(F)c(F)c(F)c3)cccc21 [Compound I-1108] | 4 | – | inhibition in vivo at 3 mg/kg [1, 3]: 42%
COc1cc(C)c(Nc2nc(=O)c(C)nn2Cc2cc(F)cc(F)c2)cc1OC [Compound I-1261] | 16 | – | inhibition in vivo at 3 mg/kg [1, 3]: 54%
COc1cn(Cc2cc(F)c(F)c(F)c2)c(Nc2cc3c(cc2C)COC3)nc1=O [Compound I-0910] | 14 | – | inhibition in vivo at 3 mg/kg [1, 3]: 45%
COc1cn(Cc2ccc(F)c(Cl)c2)c(Nc2cc3sc(C)nc3cc2C)nc1=O [Compound I-0005] | 5 | – | inhibition in vivo at 3 mg/kg [1, 5]: 45%
COc1cc(C)c(Nc2nc(=O)c(OC)cn2Cc2cc(F)cc(Cl)c2)cc1OC [Compound I-0469] | – | – | IC50 [2, 6]: < 10 nM
Cc1nc2[nH]ccc2cc1Nc1nc(=O)c(F)cn1Cc1cc(F)cc(F)c1 [Compound I-1016] | – | 10 to 100 | –
COc1cn(Cc2ccc(F)c(F)c2)c(Nc2cccc(Cl)c2C)nc1=O [Compound I-0222] | – | – | IC50 [2, 6]: < 10 nM
COc1cn(Cc2cc(F)cc(Cl)c2)c(Nc2cc(-c3ccnn3C)ccc2C)nc1=O [Compound I-0734] | – | 10 to 100 | –

SMILES | IC50 [2, 4] [nM] | IC50 [2, 7] [nM] | other results
COc1cn(Cc2cc(F)c(F)c(F)c2)c(Nc2ccccc2C)nc1=O [Compound I-1097] | – | 10 to 100 | –
COc1cn(Cc2c(F)cccc2F)c(Nc2cccc(Cl)c2C)nc1=O [Compound I-0311] | – | – | IC50 [2, 6]: 100 to 500 nM
CCc1cc(OC)c(OC)cc1Nc1nc(=O)c(OC)cn1Cc1ccccc1 [Compound I-0256] | – | – | IC50 [2, 6]: < 10 nM
COc1cc(C)c(Nc2nc(=O)c(F)cn2Cc2cc(F)cc(F)c2)cc1Cl [Compound I-1174] | – | < 10 | –
COc1cn(Cc2ccc(F)c(Cl)c2)c(Oc2cc(-c3ncco3)ccc2C)cc1=O [Compound I-0965] | 440 | – | –
COc1cn(Cc2cc(F)cc(F)c2)c(Nc2cc(C)cc3[nH]ccc23)nc1=O [Compound I-0650] | – | 10 to 100 | –
COCc1cn(Cc2cc(F)c(F)c(F)c2)c(Nc2cc(-c3ncco3)ccc2C)nc1=O [Compound I-1129] | – | 10 to 100 | –
COc1cccc(Nc2nc(=O)c(OC)cn2Cc2cc(F)cc(F)c2)c1Cl [Compound I-0638] | – | < 10 | –
CCc1ccc(OC)cc1Nc1nc(=O)c(OC)cn1Cc1ccccc1 [Compound I-0236] | – | – | IC50 [2, 6]: 10 to 100 nM
COc1cn(Cc2ccc(F)c(C)c2)c(Nc2cccc(Cl)c2C)nc1=O [Compound I-0520] | 9 | – | –
COc1cn(Cc2cc(F)cc(F)c2)c(Nc2ccc(OC(F)(F)F)cc2C)nc1=O [Compound I-0629] | – | 10 to 100 | –
COc1cn(Cc2ccc(F)c(F)c2)c(Nc2cc(N3CCOCC3)ccc2C)nc1=O [Compound I-0736] | – | 10 to 100 | –
COc1cn(Cc2cc(F)cc(C(F)(F)F)c2)c(Nc2cccc(Cl)c2C)nc1=O [Compound I-0582] | – | – | IC50 [2, 6]: 100 to 500 nM
COc1cn(Cc2cc(F)cc(Cl)c2)c(Nc2cc(C)ccc2C)nc1=O [Compound I-0445] | – | – | IC50 [2, 6]: 10 to 100 nM
COc1cn(Cc2ccc(F)c(Cl)c2)c(Nc2cc(CO)c(C)cc2C)nc1=O [Compound I-0247] | – | – | IC50 [2, 6]: < 10 nM
COc1cn(Cc2ccc(F)c(Cl)c2)c(Nc2cc(Oc3ccccn3)ccc2C)nc1=O [Compound I-0896] | – | < 10 | –
COc1cn(Cc2ccccc2OC(F)F)c(Nc2cccc(Cl)c2C)nc1=O [Compound I-0457] | – | – | IC50 [2, 6]: < 10 nM
Cc1cc(OC(F)(F)F)ccc1Nc1nc(=O)c(F)cn1Cc1cc(F)c(F)c(F)c1 [Compound I-1103] | – | 10 to 100 | –
COc1cn(Cc2cc(F)cc(Cl)c2)c(Nc2cc3ncccc3cc2C)nc1=O [Compound I-0773] | – | 100 to 500 | –
COc1cn(Cc2ccc(F)c(F)c2)c(Nc2cc(Cl)c(F)cc2C)nc1=O [Compound I-0810] | – | 10 to 100 | –
COc1cn(Cc2ccccc2)c(Nc2cc3ncccc3cc2C)nc1=O [Compound I-0770] | – | 100 to 500 | –

SMILES | IC50 [2, 4] [nM] | IC50 [2, 7] [nM] | other results
COc1cn(Cc2cccc(F)c2)c(Nc2cccc(OC(F)F)c2C)nc1=O [Compound I-0641] | – | 10 to 100 | –
COc1cn(Cc2cc(F)cc(Cl)c2)c(Nc2cc(C(C)(C)O)ccc2C)nc1=O [Compound I-0776] | – | 10 to 100 | –
COc1cn(Cc2ccccc2)c(Nc2ccc3ncsc3c2C)nc1=O [Compound I-0855] | – | 10 to 100 | –
COc1c(C)ccc(Nc2nc(=O)c(OC)cn2Cc2ccc(F)c(Cl)c2)c1C [Compound I-0419] | – | – | IC50 [2, 6]: < 10 nM
COc1cn(Cc2ccccc2)c(Nc2cc(Cl)c(Cl)cc2C)nc1=O [Compound I-0464] | – | – | IC50 [2, 6]: < 10 nM
CCOc1cc(Nc2nc(=O)c(F)cn2Cc2cc(F)cc(F)c2)c(C)cc1F [Compound I-1032] | – | 10 to 100 | –
COc1cn(Cc2ccccc2)c(NC2C[C@@H]3CC[C@H]2C3)nc1=O (stereo partly shown) [Compound I-0042] | 830 | – | –
COc1ccc(Nc2nc(=O)c(C#N)cn2Cc2cc(F)c(F)c(F)c2)c(C)c1 [Compound I-1112] | – | 10 to 100 | –
COc1cc(C)c(Nc2nc(=O)c(OC)cn2Cc2cccc(Cl)c2)cc1Cl [Compound I-0671] | – | < 10 | –
COc1cn(Cc2ccc(F)c(Cl)c2)c(Nc2cc(-c3nc4ncccc4o3)ccc2C)nc1=O [Compound I-0417] | – | – | IC50 [2, 6]: 100 to 500 nM
COc1cc(C)c(Nc2nc(=O)ccn2Cc2cc(F)c(F)c(F)c2)cc1OC [Compound I-1150] | – | 10 to 100 | –
COc1cn(Cc2ccc(F)c(F)c2)c(Nc2cc(C(C)(C)O)ccc2C)nc1=O [Compound I-0732] | – | 10 to 100 | –
CCOc1ccc(Nc2nc(=O)c(OC)cn2Cc2cc(F)cc(Cl)c2)c(C)c1 [Compound I-0681] | – | 10 to 100 | –
Cc1nc2cc(C)c(Nc3cc(=O)n(C)c(=O)n3Cc3cc(F)c(F)c(F)c3)cc2s1 [Compound I-0030] | 34 | – | –
Cc1ccc(-c2nnco2)cc1Nc1nc(=O)c(F)cn1Cc1cc(F)c(F)c(F)c1 [Compound I-1216] | 6 | – | –
Cc1cc(C)c(Nc2nc(=O)c(F)cn2Cc2cc(F)c(F)c(F)c2)cc1C [Compound I-1200] | – | < 10 | –
Cc1cc2[nH]ncc2cc1Nc1nc(=O)c(F)cn1Cc1ccc(F)c(Cl)c1 [Compound I-1093] | – | 10 to 100 | –
CCc1cc2c(cc1Nc1nc(=O)c(OC)cn1Cc1ccccc1)OCCO2 [Compound I-0796] | – | 10 to 100 | –
COc1cn(Cc2cccc(Cl)c2)c(Nc2cccc(C)c2C)nc1=O [Compound I-0312] | – | – | IC50 [2, 6]: 10 to 100 nM
CCOc1ccc(Nc2nc(=O)c(OC)cn2Cc2cccc(Cl)c2)c(C)c1 [Compound I-0677] | – | 10 to 100 | –
